Results on two molecules are retold here after patent US9586953B2, “Prodrugs of amino quinazoline kinase inhibitor” (GlaxoSmithKline Intellectual Property Development Limited, priority 2012, dated 2017).

A short description of series [1]: In vivo Assay (II): half life of the prodrug after oral administration in rat. The note with it: whole blood, rat (n=2), orally administered at a dose equivalent to 2 mg/kg of the parent ethanol compound, LC/MS, read-out: half life (T1/2). Here is the method:
(§1) 2-((4-(Benzo[d]thiazol-5-ylamino)-6-(tert-butylsulfonyl)quinazolin-7-yl)oxy)ethyl dihydrogen phosphate was orally administered at a dose equivalent to 2 mg/kg of 2-((4-(benzo[d]thiazol-5-ylamino)-6-(tert-butylsulfonyl)quinazolin-7-yl)oxy)ethanol to a series of test animals. Rats (n=2) and dogs (n=3) were administered 2-((4-(benzo[d]thiazol-5-ylamino)-6-(tert-butylsulfonyl)quinazolin-7-yl)oxy)ethyl dihydrogen phosphate, whereas minipigs (male Göttingen minipigs (n=3)) were administered 2-((4-(benzo[d]thiazol-5-ylamino)-6-(tert-butylsulfonyl)quinazolin-7-yl)oxy)ethyl disodium phosphate. Blood samples were taken from each test animal at intervals between 0 to 24 hrs (25 hrs in dog) after administration. The concentration 2-((4-(benzo[d]thiazol-5-ylamino)-6-(tert-butylsulfonyl)quinazolin-7-yl)oxy)ethanol in each sample was determined by LC/MS. The average blood concentrations of 2-((4-(benzo[d]thiazol-5-ylamino)-6-(tert-butylsulfonyl)quinazolin-7-yl)oxy)ethanol in each test species, following oral administration of 2-((4-(benzo[d]thiazol-5-ylamino)-6-(tert-butylsulfonyl)quinazolin-7-yl)oxy)ethyl dihydrogen phosphate or disodium phosphate are shown in FIG. 4.

A short description of series [2]: In vivo Assay (II): half life of the prodrug after oral administration in dog. The note with it: whole blood, dog (n=3), orally administered at a dose equivalent to 2 mg/kg of the parent ethanol compound, LC/MS, read-out: half life (T1/2). Here is the method:
as §1

A short description of series [3]: In vivo Assay (II): half life of the prodrug after oral administration in minipig. The conditions noted are these: male, Göttingen, whole blood, minipig (n=3), orally administered at a dose equivalent to 2 mg/kg of the parent ethanol compound, LC/MS, read-out: half life (T1/2). On the set-up: species or system male Göttingen minipigs. How it is done: as §1

As for `CC(C)(C)S(=O)(=O)c1cc2c(Nc3ccc4scnc4c3)ncnc2cc1OCCOP(=O)(O)O` [Example 1, 2-((4-(Benzo[d]thiazol-5-ylamino)-6-(tert-butylsulfonyl)quinazolin-7-yl)oxy)ethyl dihydrogen phosphate], the half-life in series [1] was 15 min; in series [2] it was 5 min.

On to `CC(C)(C)S(=O)(=O)c1cc2c(Nc3ccc4scnc4c3)ncnc2cc1OCCOP(=O)(O)O` [Example 2, 2-((4-(Benzo[d]thiazol-5-ylamino)-6-(tert-butylsulfonyl)quinazolin-7-yl)oxy)ethyl disodium phosphate], for which the half-life in series [3] worked out at 26 min.
